Laboratory results taken from patent US11090304B2 (Amgen Inc., priority 2018, dated 2021).
Where two headings read alike, the source gives them in different places.

How the values were obtained:
[1] = system: Phosphorylation of ERK1/2 in A549 cells; assay: Phospho-ERK1/2 MSD assay in A549 cells; assay type: cell-based; conditions: Homo sapiens
Procedure, shortened: (§1)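 Following a 2 or 4 h incubation with titrated compound, cells receive a 10 min pulse of 10 ng/mL EGF. Phospho-ERK1/2 in RIPA lysates is then quantified by MSD immunoassay, and IC50 values come from a four-parameter logistic model.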

[2] = biological target: GDP-bound KRAS protein (aa 1-169), containing both G12C and C118A amino acid substitutions (Homo sapiens, UniProt P01116, C118A/G12C); assay: Coupled nucleotide exchange assay (SOS-mediated, AlphaScreen); assay type: biochemical; conditions: for Coupled exchange IC50 (5 min): 5 min compound pre-incubation; for Coupled exchange IC50 (2 h): 2 h compound pre-incubation
[3] = system: Phosphorylation of ERK1/2 in MIA PaCa-2 cells; assay: Phospho-ERK1/2 MSD assay in MIA PaCa-2 cells; assay type: cell-based; conditions: Homo sapiens
Procedure, shortened: as §1

[4] = A549, 2 h, read-out: p-ERK IC50 (2 h; A549), 2 h compound treatment
[5] = A549, 4 h, read-out: p-ERK IC50 (4 h; A549), 4 h compound treatment
[6] = MIA PaCa-2, 2 h, read-out: p-ERK IC50 (2 h; MIA PaCa-2), 2 h compound treatment
[7] = MIA PaCa-2, 4 h, read-out: p-ERK IC50 (4 h; MIA PaCa-2), 4 h compound treatment

Sequence of GDP-bound KRAS protein (aa 1-169), containing both G12C and C118A amino acid substitutions (P01116 1-169 isoform P01116-2 G12C/C118A): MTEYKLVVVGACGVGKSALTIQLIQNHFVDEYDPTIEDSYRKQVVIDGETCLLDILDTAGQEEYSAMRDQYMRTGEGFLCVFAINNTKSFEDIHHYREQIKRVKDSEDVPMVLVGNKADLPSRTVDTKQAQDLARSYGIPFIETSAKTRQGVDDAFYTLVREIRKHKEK

IC50 [1, 4] [nM]	IC50 [1, 5] [nM]	Coupled exchange IC50 (5 min) [2]	Coupled exchange IC50 (2 h) [2]	IC50 [3, 6] [nM]	IC50 [3, 7] [nM]	Compound
≥ 10000	≥ 11100	0.216 µM	93 nM	145	91	C=CC(=O)N1CCN(c2nc(=O)n(-c3c(CC)cccc3CC)c3nc(-c4ccccc4F)c(Cl)cc23)[C@@H](C)C1 [Example 54-60, 6-ehloro-1-(2,6-diethylphenyl)-7-(2-fluorophenyl)-4-((2S)-2-methyl-4-(2-propenoyl)-1-piperazinyl) pyrido[2,3-d]pyrimidin-2(1H)-one]
–	67700	1.85 µM	161 nM	–	1040	C=CC(=O)N1CCN(c2nc(=O)n(CC(C)(C)C)c3nc(-c4ccccc4F)c(Cl)cc23)CC1 [Example 60-6]
≥ 100000	–	1.24 µM	139 nM	1700	–	C=CC(=O)N1CCN(c2nc(=O)n(CC(C)(C)C(F)(F)F)c3nc(-c4ccccc4F)c(Cl)cc23)[C@@H](C)C1 [Example 60-33, 6-chloro-7-(2-fluorophenyl)-4-((2S)-2-methyl-4-(2-propenoyl)-1-piperazinyl)-1-(3,3,3-trifluoro-2,2-dimethylpropyl)pyrido[2,3-d]pyrimidin-2(1H)-one]
≥ 10000	–	0.395 | nda μM	–	237	–	C=CC(=O)N1CCN(c2nc(=O)n(-c3ccccc3CC)c3nc(-c4ccccc4F)c(Cl)cc23)[C@@H](C)C1 [Example 54-31, 6-chloro-1-(2-ethylphenyl)-7-(2-fluorophenyl)-4-((2S)-2-methyl-4-(2-propenoyl)-1-piperazinyl) pyrido[2,3-d]pyrimidin-2(1H)-one]
≥ 10000	–	0.991 | nda μM	–	450	–	C=CC(=O)N1CCN(c2nc(=O)n(-c3ccccc3C(C)C)c3nc(-c4ccccc4F)c(F)cc23)[C@@H](C)C1 [Example 57-7, 6-fluoro-7-(2-fluorophenyl)-4-((2S)-2-methyl-4-(2-propenoyl)-1-piperazinyl)-1-(2-(2-propanyl)phenyl)pyrido[2,3-d]pyrimidin-2(1H)-one]
≥ 10000	–	0.109 | nda μM	–	66	–	C=CC(=O)N1CCN(c2nc(=O)n(-c3ccccc3C(C)C)c3nc(-c4cc(O)ccc4Br)c(Cl)cc23)[C@@H](C)C1 [Example 54-87, 7-(2-bromo-5-hydroxyphenyl)-6-chloro-4-((2S)-2-methyl-4-(2-propenoyl)-1-piperazinyl)-1-(2-(2-propanyl)phenyl)pyrido [2,3-d]pyrimidin-2(1H)-one]
≥ 10000	–	0.176 | nda μM	–	215	–	C=CC(=O)N1CCN(c2nc(=O)n(-c3c(Cl)cccc3Cl)c3nc(-c4c(O)cccc4F)c(Cl)cc23)[C@@H](C)C1 [Example 54-33, 6-chloro-1-(2,6-dichlorophenyl)-7-(2-fluoro-6-hydroxyphenyl)-4-((2S)-2-methyl-4-(2-propenoyl)-1-piperazinyl) pyrido[2,3-d]pyrimidin-2(1H)-one]
52400	60500	0.589 µM	102 nM	492	447	C=CC(=O)N1CCN(c2nc(=O)n(CC(C)(C)C)c3nc(-c4c(O)cccc4F)c(Cl)cc23)CC1 [Example 60-5, 6-chloro-1-(2,2-dimethylpropyl)-7-(2-fluoro-6-hydroxyphenyl)-4-(4-(2-propenoyl)-1-piperazinyl)pyrido[2,3-d]pyrimidin-2(1H)-one]
≥ 10000	–	0.02 | nda μM	–	55	–	C=CC(=O)N1CCN(c2nc(=O)n(-c3c(C)ncnc3C(C)C)c3nc(-c4ccccc4F)c(Cl)cc23)[C@@H](C)C1 (single isomer, unassigned) [Example 55-13-2]
≥ 10000	–	0.289 | nda μM	–	162	–	C=CC(=O)N1CCN(c2nc(=O)n(-c3ccccc3C3CCC3)c3nc(-c4ccccc4F)c(Cl)cc23)[C@@H](C)C1 [Example 54-12, 6-chloro-1-(2-cydobutyl-phenyl)-7-(2-fluorophenyl)-4-((2S)-2-methyl-4-(2-propenoyl)-1-piperazinyl) pyrido[2,3-d]pyrirnidin-2(1H)-one]
–	108000	–	nda | 0.123 μM	–	1550	CC(C)c1ccccc1-n1c(=O)nc(N2CCN(C(=O)/C=C/CN(C)C)CC2)c2cc(Cl)c(-c3c(O)cccc3F)cc21 [Example 92, 6-Chloro-4-(4-((2E)-4-(dimethylamino)-2-butenoyl)-1-piperazinyl)-7-(2-fluoro-6-hydroxyphenyl)-1-(2-(2-propanyl)phenyl)-2(1H)-quinazolinone]
≥ 10000	–	0.306 | nda μM	–	528	–	C=CC(=O)N1CCN(c2nc(=O)n(CC3(C)CC3)c3nc(-c4c(O)cccc4F)c(Cl)cc23)[C@@H](C)C1 [Example 54-6, 6-chloro-7-(2-fluoro~ 6-hydroxyphenyl)-1-((1-methylcyclopropyl)methyl)-4-((2S)-2-methyl-4-(2-propenoyl)-1-piperazinyl) pyrido[2,3-d]pyrimidin-2(1H)-one]
≥ 10000	–	0.147 | nda μM	–	86	–	C=CC(=O)N1CCN(c2nc(=O)n(-c3cccnc3C(C)C)c3nc(-c4ccccc4F)c(Cl)cc23)[C@@H](C)C1 [Example 54-9, 6-chloro-7-(2-fluorophenyl)-4-((2S)-2-methyl-4-(2-propenoyl)-1-piperazinyl)-1-(2-(2-propanyl)-3-pyridinyl) pyrido[2,3-d]pyrimidin-2(1H)-one]
≥ 10000	–	0.173 | nda μM	–	72	–	C=CC(=O)N1CCN(c2nc(=O)n(-c3nccnc3C3CC3)c3nc(-c4c(O)cccc4F)c(Cl)cc23)[C@@H](C)C1 [Example 60-8, 6-chloro-1-(3-cyclopropyl-2-pyrazinyl)-7-(2-fluoro-6-hydroxyphenyl)-4-((2S)-2-methyl-4-(2-propenoyl)-1-piperazinyl)pyrido[2,3-d]pyrimidin-2(1H)-one]
≥ 10000	–	0.22 | nda μM	–	712	–	C=CC(=O)N1CCN(c2nc(=O)n(-c3ccncc3C3CC3)c3nc(-c4c(O)cccc4F)c(Cl)cc23)[C@@H](C)C1 [Example 54-59, 6~chloro-1-(3-cyclopropyl-4-pyridinyl)-7-(2-fluoro-6-hydroxyphenyl)-4-((2S)-2-methyl-4-(2-propenoyl)-1-piperazinyl) pyrido[2,3-d]pyrimidin-2(1H)-one]
≥ 10000	–	1.963 | nda μM	–	796	–	C=CC(=O)N1CCN(c2nc(=O)n(-c3ccccc3Cl)c3nc(-c4ccccc4F)c(Cl)cc23)[C@@H](C)C1 [Example 54-32, 6-chloro-1-(2-chlorophenyl)-7-(2-fluorophenyl)-4-((2S)-2-methyl-4-(2-propenoyl)-1-piperazinyl) pyrido[2,3-d]pyrimidin-2(1H)-one]
≥ 10000	–	0.478 | nda μM	–	508	–	C=CC(=O)N1CCN(c2nc(=O)n(CC(C)(C)C(F)(F)F)c3nc(-c4c(C)ccc5[nH]ncc45)c(Cl)cc23)[C@@H](C)C1 [Example 60-34, 6-chloro-7-(5-methyl-1H-indazol-4-yl)-4-((2S)-2-methyl-4-(2-propenoyl)-1-piperazinyl)-1-(3,3,3-trifluoro-2,2-dimethylpropyl)pyrido[2,3-d]pyrimidin-2(1H)-one]
≥ 10000	–	0.103 | nda μM	–	122	–	C=CC(=O)N1CCN(c2nc(=O)n(-c3c(CC)cccc3CC)c3nc(-c4ccccc4C(C)C)c(Cl)cc23)[C@@H](C)C1 [Example 54-23, 6-chloro-1-(2,6-diethylphenyl)-4-((2S)-2-methyl-4-(2-propenoyl)-1-piperazinyl)-7-(2-(2-propanyl)phenyl)pyrido [2,3-d]pyrimidin-2(1H)-one]
≥ 100000	≥ 11100	–	nda | 0.776 μM	2480	992	C=CC(=O)N1CCN(c2nc(=O)n(-c3ccccc3C(C)C)c3nc(Cl)c(Cl)cc23)[C@@H](C)C1 [Example 61-1, 6,7-Dichloro-4-((2S)-2-methyl-4-(2-propenoyl)-1-piperazinyl)-1-(2-(2-propanyl)phenyl)pyrido[2,3-d]pyrimidin-2(1H)-one]
≥ 10000	–	0.445 | nda μM	–	554	–	C=CC(=O)N1CCN(c2nc(=O)n(CC3(C(F)(F)F)CC3)c3nc(-c4c(O)cccc4F)c(Cl)cc23)[C@@H](C)C1 [Example 54-5, 6-chloro-7-(2-fluoro-6-hydroxyphenyl)-4-((2S)-2-methyl-4-(2-propenoyl)-1-piperazinyl)-1-((1-(trifluoromethyl)cyclopropyl)methyl)pyrido [2,3-d]pyrimidin-2(1H)-one]
87400	63900	0.392 µM	157 nM	221	213	C=CC(=O)N1CCN(c2nc(=O)n(C(CC)CC)c3nc(-c4c(C)ccc5[nH]ncc45)c(Cl)cc23)[C@@H](C)C1 [Example 60-32, 6-chloro-7-(5-methyl-1H-indazol-4-yl)-4-((2S)-2-methyl-4-(2-propenoyl)-1-piperazinyl)-1-(3-pentanyl)pyrido[2,3-d]pyrimidin-2(1H)-one]
